Holding throughout (assay type): in vivo
One data set concerns scirpus juncoides. The experiment in a line: weed control effect evaluation in rice field. On the set-up: key: Level 10: completely dead; Level 9: above 95% growth control rate; Level 8: above 90% growth control rate; Level 7: above 80% growth control rate; Level 6: above 70% growth control rate; Level 5: above 60% growth control rate; Level 4: above 50% growth control rate; Level 3: above 20% growth control rate; Level 2: 5%-20% growth control rate; Level 1: below 5% growth control rate. To be noted: 125 g/ha ai; rice field pot; 14 days after treatment; resistant to pyrazosulfuron-ethyl. The procedure, abridged: (§1)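 Seeds sown in flooded rice-field soil in greenhouse pots; sagittaria tubers planted 1-2 days later, water kept at 3-4 cm. WP or SC dilutions dripped on at 0.5-leaf stage (sagittaria at primary leaf stage) at specified effective amounts. Weed growth control scored visually at 14 days, rice at 21 days.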

The next data set concerns bidens tripartite. The experiment in a line: weed control effect evaluation in rice field. On the set-up: key: Level 10: completely dead; Level 9: above 95% growth control rate; Level 8: above 90% growth control rate; Level 7: above 80% growth control rate; Level 6: above 70% growth control rate; Level 5: above 60% growth control rate; Level 4: above 50% growth control rate; Level 3: above 20% growth control rate; Level 2: 5%-20% growth control rate; Level 1: below 5% growth control rate. To be noted: 125 g/ha ai; rice field pot; 14 days after treatment; resistant to pyrazosulfuron-ethyl. The procedure, abridged:
as §1

In data set [1] the test system is echinochloa. The data set is described as follows: weed control effect evaluation in rice field. On the set-up: key: Level 10: completely dead; Level 9: above 95% growth control rate; Level 8: above 90% growth control rate; Level 7: above 80% growth control rate; Level 6: above 70% growth control rate; Level 5: above 60% growth control rate; Level 4: above 50% growth control rate; Level 3: above 20% growth control rate; Level 2: 5%-20% growth control rate; Level 1: below 5% growth control rate. To be noted: 125 g/ha ai; rice field pot; 14 days after treatment; resistant to pyrazosulfuron-ethyl. The procedure, abridged: as §1

The next data set deals with sagittaria trifolia. The experiment in a line: weed control effect evaluation in rice field. On the set-up: key: Level 10: completely dead; Level 9: above 95% growth control rate; Level 8: above 90% growth control rate; Level 7: above 80% growth control rate; Level 6: above 70% growth control rate; Level 5: above 60% growth control rate; Level 4: above 50% growth control rate; Level 3: above 20% growth control rate; Level 2: 5%-20% growth control rate; Level 1: below 5% growth control rate. To be noted: 125 g/ha ai; rice field pot; 14 days after treatment; resistant to pyrazosulfuron-ethyl. A digest of the protocol:
as §1

A further data set concerns rice. The data set is described as follows: post-emergence stage experiment, crop (Table 1). To be noted: post-emergence spray at 4-5 leaf stage, 250 g/ha active ingredient with 450 kg/ha water, rated after 3 weeks in greenhouse. The procedure, abridged: (§2)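 Fresh-weight reduction is recorded three weeks after a sprayer applies the acetone/Tween 80 aqueous compound solution to greenhouse-grown plants at the 4-5 leaf stage.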

The next data set concerns foxtail. The data set is described as follows: weed control effect in post-emergence stage (Table 1). On the set-up: key: Level 10: completely dead; Level 9: above 95% growth control rate; Level 8: above 90% growth control rate; Level 7: above 80% growth control rate; Level 6: above 70% growth control rate; Level 5: above 60% growth control rate; Level 4: above 50% growth control rate; Level 3: above 20% growth control rate; Level 2: 5%-20% growth control rate; Level 1: below 5% growth control rate. To be noted: post-emergence spray at 4-5 leaf stage, 250 g/ha active ingredient with 450 kg/ha water, rated after 3 weeks in greenhouse. The procedure, abridged: as §2

Another data set deals with crab grass. Described as above. To be noted: post-emergence spray at 4-5 leaf stage, 250 g/ha active ingredient with 450 kg/ha water, rated after 3 weeks in greenhouse. On the set-up: key: Level 10: completely dead; Level 9: above 95% growth control rate; Level 8: above 90% growth control rate; Level 7: above 80% growth control rate; Level 6: above 70% growth control rate; Level 5: above 60% growth control rate; Level 4: above 50% growth control rate; Level 3: above 20% growth control rate; Level 2: 5%-20% growth control rate; Level 1: below 5% growth control rate. A digest of the protocol: as §2

In data set [2] the test system is echinochloa. The data set is described as above. On the set-up: key: Level 10: completely dead; Level 9: above 95% growth control rate; Level 8: above 90% growth control rate; Level 7: above 80% growth control rate; Level 6: above 70% growth control rate; Level 5: above 60% growth control rate; Level 4: above 50% growth control rate; Level 3: above 20% growth control rate; Level 2: 5%-20% growth control rate; Level 1: below 5% growth control rate. To be noted: post-emergence spray at 4-5 leaf stage, 250 g/ha active ingredient with 450 kg/ha water, rated after 3 weeks in greenhouse. A digest of the protocol: as §2

The next data set deals with Indian mallow. Described as above. On the set-up: key: Level 10: completely dead; Level 9: above 95% growth control rate; Level 8: above 90% growth control rate; Level 7: above 80% growth control rate; Level 6: above 70% growth control rate; Level 5: above 60% growth control rate; Level 4: above 50% growth control rate; Level 3: above 20% growth control rate; Level 2: 5%-20% growth control rate; Level 1: below 5% growth control rate. To be noted: post-emergence spray at 4-5 leaf stage, 250 g/ha active ingredient with 450 kg/ha water, rated after 3 weeks in greenhouse. A digest of the protocol: as §2

The next data set concerns bidens bipinnata. Described as above. On the set-up: key: Level 10: completely dead; Level 9: above 95% growth control rate; Level 8: above 90% growth control rate; Level 7: above 80% growth control rate; Level 6: above 70% growth control rate; Level 5: above 60% growth control rate; Level 4: above 50% growth control rate; Level 3: above 20% growth control rate; Level 2: 5%-20% growth control rate; Level 1: below 5% growth control rate. To be noted: post-emergence spray at 4-5 leaf stage, 250 g/ha active ingredient with 450 kg/ha water, rated after 3 weeks in greenhouse. A digest of the protocol: as §2

A further data set has as its system rorippa indica. Described as above. On the set-up: key: Level 10: completely dead; Level 9: above 95% growth control rate; Level 8: above 90% growth control rate; Level 7: above 80% growth control rate; Level 6: above 70% growth control rate; Level 5: above 60% growth control rate; Level 4: above 50% growth control rate; Level 3: above 20% growth control rate; Level 2: 5%-20% growth control rate; Level 1: below 5% growth control rate. To be noted: post-emergence spray at 4-5 leaf stage, 250 g/ha active ingredient with 450 kg/ha water, rated after 3 weeks in greenhouse. The procedure, abridged:
as §2

Structures are written as SMILES.

With `CCn1nc(C)c(C(=O)c2ccc(C(F)(F)F)c(-n3cccn3)c2Cl)c1OC(=O)c1cn(C)nc1C` [Compound 129], the “Scirpus juncoides weed control effect (activity level)” value in the data set on scirpus juncoides was 10. Besides, the “Bidens tripartite weed control effect (activity level)” value in the data set with bidens tripartite is listed as 10. In the data set on echinochloa [1], the “Echinochloa weed control effect (activity level)” value stood at 10. In addition, in the data set on sagittaria trifolia, the “Sagittaria trifolia weed control effect (activity level)” value came out at 10. For the same compound, the “effect on crop, Rice (level)” value in the data set on rice is listed as 6 (Level 6: above 70% growth control rate). The “weed control effect, Green foxtail (level)” value with foxtail amounted to 10. Also, the “weed control effect, Crab grass (level)” value in the data set on crab grass worked out at 0. In the data set on echinochloa [2], the “weed control effect, Echinochloa (level)” value turned out to be 10. Besides, the “weed control effect, Indian mallow (level)” value in the data set with Indian mallow was 3 (Level 3: above 20% growth control rate). Besides, the “weed control effect, Bidens bipinnata (level)” value in the data set on bidens bipinnata is recorded as 9 (Level 9: above 95% growth control rate). Also, the “weed control effect, Rorippa indica (level)” value in the data set with rorippa indica stood at 10.

The record behind these values is patent publication US11076594B2, “Pyrazolone compound or salt thereof, preparation method therefor, herbicide composition and use thereof” (QINGDAO KINGAGROOT CHEMICAL COMPOUNDS CO., LTD., priority 2015, dated 2021).
